One test deals with Miapaca-2 cells. In words: Cell clonogenic assay, drug alone. It counts as cell-based, human. The settings on record: Miapaca-2, 3 µM.
A further test deals with 4T1 cells. In words: Cell clonogenic assay, drug alone. It counts as cell-based, murine. Particulars: 4T1, 3 µM.
The test system of test [1] is 4T1 murine breast cancer cells. Nature of the test: Cell proliferation MTS assay. It is filed as cell-based. The settings on record: Mus musculus, 96 h. For orientation: Tetrazolium assays rely on reduction of a dye to a coloured formazan, in cell work by metabolically active cells.

`CC1=C2C[C@H]3[C@@H](CC=C4C[C@@H](O)CC[C@@]43C)[C@@H]2CC[C@]12O[C@@H]1C[C@H](C)CN[C@H]1[C@H]2C` [free CPA, cyclopamine]: the “Reduction of colony numbers” value is reported as 17.7% ± 4.3 in the test on Miapaca-2 cells and 6.7% ± 6.1 in the test on 4T1 cells. Further, 11.3 ± 1.2 µM corresponded to half-maximal inhibition in test [1] (IC50).

The values above are taken from PMC4394992 (Journal of controlled release : official journal of the …, 2015).
